From patent US11149028B2, “Methods for treating melanoma using small molecules” (NOVA SOUTHEASTERN UNIVERSITY, priority 2016, dated 2021)
“Also recorded” adds a separate entry of the source. Each block holds one compound with its values, some of them ahead of it.

How the values were obtained:
[1] = tested on: HSP90; details: human, in vivo; cited from earlier work
[2] = tested on: WM266-4 cells; test: Cell staining for autophagy (autophagosome dye); type: cell-based, human; details: dansylated analog, 25 μM
Description: WM266-4 cells were seeded at 10,000 cells/well in 0.1 mL of E-MEM medium supplemented with 10% FBS and 1% penicillin/streptomycin in 96 well plates (Greiner Bio-One CellStar cat #655180) and allowed to adhere overnight. After overnight incubation 100 μM 2155-14, 2155-18, 50 nM hnRNPH2 siRNA or 25 μM 2476-67.2 were added and incubated for various length of time. Cells were rinsed with warm PBS and stained with CYTO-ID® 1.0 Autophagy reagent (Enzo ENZ-51031-0050) and counterstained with DAPI. Cells were imaged using Cytation 5 imager (Biotek Inc, Winooski, Vt.) using GFP and DAPI filter sets. For % autophagic cells calculations cell counts were conducted using DAPI-stained nuclei and Object Sum Area value was obtained from at least 1,000 cells/well using DAPI channels. To obtain number of cells undergoing autophagy the cell count was conducted using GFP channel. Both GFP and DAPI cell counts were conducted using optimized algorithm in automatic mode. 8 replicate wells were used. % autophagic cells was calculated using Equation 1:% autophagic cells=100%*(number of cells, GFP channenumber of cells, DAPI channel)
To calculate staining intensity, the Object Sum Area value from GFP channel was obtained and divided by number of cells using DAPI channel. Both GFP and DAPI cell counts were conducted using optimized algorithm in automatic mode. 3 replicate wells were used.

[3] = tested on: LC3-II and beclin-1 in WM266-4 cells; test: Western blotting for LC3 and beclin-1, WM266-4; type: cell-based, human
Description: (§1) 1×10^6 of WM266-4 or M14 cells were seeded in 3 mL of E-MEM or RPMI-1640 medium supplemented with 10% FBS and 1% penicillin/streptomycin in 6 cm plates. […] After washing with TBST, the membranes were treated with chemilumiscent horseradish peroxidase detection reagent (Thermo Scientific, Cat #32209) and exposed to autoradiography film (Denville Scientific, Inc., Metuchen, N.J., USA, cat #E3018). ImageJ software (NIH, Bethesda, Md.) was used to quantify the intensity of proteins bands. The protein bands were normalized against loading controls (β-actin) and expressed as a fold of an untreated control.

[4] = tested on: WM266-4 cells; test: Cell staining with dansylated derivatives of 2155-14; type: cell-based, human; details: 100 μM
Description: WM266-4 cells were seeded at 10,000 cells/well in 0.1 mL of E-MEM medium supplemented with 10% FBS and 1% penicillin/streptomycin in 96 well plates (Greiner Bio-One CellStar cat #655180) and allowed to adhere overnight. After overnight incubation cells were stained with 100 μM of fluorescent analogs of 2155-14 for various length of time, and rinsed with warm PBS. Cells were imaged using Cytation 5 imager (Biotek Inc, Winooski, Vt.) using custom filter set: λexcitation=377/50 and λemission=542/27 nm.

[5] = tested on: cleaved lamin A/C in WM266-4 cells; test: Western blotting for lamin A/C cleavage; type: cell-based, human; details: for cleaved lamin A/C level: 100 μM, 24 h
Description: as §1, with “controls.” for “controls (β-actin) and expressed as a fold of an untreated control.”

[6] = tested on: WM266-4 cells; test: CellTiter-Glo cell viability assay, WM266-4 (including rescue assays); type: cell-based, human; details: for IC50: WM 266-4, 72 h
Description: (§2) Cells were plated in 384-well plates in 8 μL of media. Test compounds and dabrafenib (pharmacological assay control) were prepared as 10-point, 1:3 serial dilutions starting at 300 μM, then added to the cells (4 μL per well) using the Biomek Plates were incubated for 72 h at 37° C., 5% CO2 and 95% relative humidity. After incubation, 4 μL of CellTiter-Glo® (Promega cat #: G7570) were added to each well, and incubated for 15 min at room temperature. Luminescence was recorded using a Biotek Synergy H4 multimode microplate reader. Viability was expressed as a percentage relative to wells containing media only (0%) and wells containing cells treated with DMSO only (100%). Three parameters were calculated on a per-plate basis: (a) the signal-to-background ratio (SB); (b) the coefficient for variation [CV; CV=(standard deviation/mean)×100)] for all compound test wells; and (c) the Z′-factor (18). The IC50 value of the pharmacological control (dabrafenib, LC Laboratories #G-4408) was also calculated to ascertain the assay robustness. In case of viability rescue assays, cells were pre-treated with caspase, calpain, and autophagy inhibitors for 1-3 h before addition of test compounds. Time course viability assay was done with luminescence measurements performed at 4, 24, 48, and 72 h.

[7] = tested on: hnRNP A2/B1; test: Pull-down with biotinylated analogs, western blot; type: binding, human; details: WM266-4 lysates
Description: (§3) WM-266-4 and M14 cells were sonicated in RIPA lysis buffer containing added protease inhibitors. Affinity beads were prepared by addition of the 0.3 mg biotinylated probes to the 50 μL of streptavidin agarose resin, which was washed three times with the lysis buffer. Following incubation at 4° C. for 1 h, the obtained affinity beads complexed with biotinylated compounds were washed three times with lysis buffer to remove any unbound materials. The cell lysates (1 mg protein content) were then added to the probe-bound beads, and samples were incubated at 4° C. for 1 h and overnight on a rotator. Following 5 washes with lysis buffer, the samples were subjected to SDS-PAGE. The gels were stained overnight with colloidal blue (Invitrogen). Gel bands of interest were excised, reduced, carbidomethylated, dehydrated, and digested with Trypsin Gold (Promega) as per manufacturers' instructions. Following digestion, peptides were extracted, all fractions were combined, and the volume was reduced in a SpeedVac to near dryness, and re-suspended to 20 μL using 95% ddH2O/5% ACN/0.1% formic acid (FA) prior to analysis by 1D reversed-phase LC-nESI-MS2 (as outlined below) (Ludwig, M. R. et al. Surveying the serologic proteome in a tissue-specific kras(G12D) knockin mouse model of pancreatic cancer. Proteomics 16, 516-531, doi:10.1002/pmic.201500133 2016).
(§4) WM-266-4 cells were sonicated in RIPA lysis buffer containing protease inhibitors. Affinity beads were prepared by addition of the biotinylated probes (0.3 mg) to the streptavidin agarose resin (50 μL), which was first washed three times with the lysis buffer. […] The protein extract (1 mg) was then added to the probe-bound beads, and samples were incubated at 4° C. overnight. Following 5 washes with lysis buffer, the protein isolates were subjected to SDS-PAGE followed by transfer to nitrocellulose membrane. hnRNP H2 was detected using rabbit polyclonal antibody (Abgent #: AP13497b; 1:3,000, in 2% milk overnight), DDX1 monoclonal antibody (Santa Cruz #sc-271393, 1:1,000 in 2% BSA overnight), or hnRNP B1/A2 monoclonal antibody (Santa Cruz #SC-32316, 1:1,000 in 2% BSA overnight). After washing with TBST, the membranes were treated with chemilumiscent horseradish peroxidase detection reagent (Thermo Scientific, Cat #32209) and exposed to autoradiography film (Denville Scientific, Inc., Metuchen, N.J., USA, cat #E3018). ImageJ software (NIH, Bethesda, Md.) was used to quantify the intensity of proteins bands. The protein bands were normalized against loading controls.

[8] = tested on: hnRNP H2; test: Pull-down with biotinylated analogs, western blot; type: binding, human; details: WM266-4 lysates
Description: as §3, §4

[9] = tested on: lamin A/C; test: Pull-down with biotinylated analogs; type: binding, human; details: WM266-4 lysates
Description: as §3

[10] = target: T1, DDX1 (Homo sapiens, UniProt Q92499); test: Pull-down with biotinylated analogs, western blot; type: binding; details: WM266-4 lysates
T1 construct: WM-266-4 and M14 cells were sonicated in RIPA lysis buffer; endogenous in cells; host or cells: WM266-4 (and M14) melanoma cells and lysates
T1 sequence (Q92499 whole entry): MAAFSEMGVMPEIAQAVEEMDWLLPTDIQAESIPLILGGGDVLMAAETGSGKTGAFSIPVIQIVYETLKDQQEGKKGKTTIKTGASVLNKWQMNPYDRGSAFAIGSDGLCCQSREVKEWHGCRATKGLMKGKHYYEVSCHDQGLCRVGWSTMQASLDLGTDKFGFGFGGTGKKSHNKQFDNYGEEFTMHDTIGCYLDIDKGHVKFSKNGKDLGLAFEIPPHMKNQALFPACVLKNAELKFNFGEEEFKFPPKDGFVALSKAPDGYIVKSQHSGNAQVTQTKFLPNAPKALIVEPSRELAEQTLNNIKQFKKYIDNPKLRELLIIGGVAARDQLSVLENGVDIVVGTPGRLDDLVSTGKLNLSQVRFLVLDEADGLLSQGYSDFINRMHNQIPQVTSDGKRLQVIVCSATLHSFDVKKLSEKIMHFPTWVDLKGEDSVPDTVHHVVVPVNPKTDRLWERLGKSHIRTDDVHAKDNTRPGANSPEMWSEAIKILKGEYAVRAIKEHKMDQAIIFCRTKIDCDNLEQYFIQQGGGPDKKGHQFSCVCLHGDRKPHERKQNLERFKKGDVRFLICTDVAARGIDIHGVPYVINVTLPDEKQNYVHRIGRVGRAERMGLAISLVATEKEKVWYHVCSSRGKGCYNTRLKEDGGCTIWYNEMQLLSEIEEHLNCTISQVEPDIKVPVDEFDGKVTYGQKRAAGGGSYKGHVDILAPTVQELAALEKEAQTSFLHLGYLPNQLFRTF
Description: WM-266-4 and M14 cells were sonicated in RIPA lysis buffer containing added protease inhibitors. Affinity beads were prepared by addition of the 0.3 mg biotinylated probes to the 50 μL of streptavidin agarose resin, which was washed three times with the lysis buffer. Following incubation at 4° C. for 1 h, the obtained affinity beads complexed with biotinylated compounds were washed three times with lysis buffer to remove any unbound materials. The cell lysates (1 mg protein content) were then added to the probe-bound beads, and samples were incubated at 4° C. for 1 h and overnight on a rotator. Following 5 washes with lysis buffer, the samples were subjected to SDS-PAGE. The gels were stained overnight with colloidal blue (Invitrogen). […]
WM-266-4 cells were sonicated in RIPA lysis buffer containing protease inhibitors. […] Following 5 washes with lysis buffer, the protein isolates were subjected to SDS-PAGE followed by transfer to nitrocellulose membrane. hnRNP H2 was detected using rabbit polyclonal antibody (Abgent #: AP13497b; 1:3,000, in 2% milk overnight), DDX1 monoclonal antibody (Santa Cruz #sc-271393, 1:1,000 in 2% BSA overnight), or hnRNP B1/A2 monoclonal antibody (Santa Cruz #SC-32316, 1:1,000 in 2% BSA overnight). […] ImageJ software (NIH, Bethesda, Md.) was used to quantify the intensity of proteins bands. […]

[11] = tested on: mouse embryonic fibroblasts (MEF); test: Viability of mouse embryonic fibroblasts; type: cell-based
Description: as §2

[12] = tested on: calpain in WM266-4 cells; test: Calpain activity assay (Calpain-Glo); type: cell-based, human; details: 25 μM inhibitor, 100 μM 2155-14
Description: The Calpain-Glo Protease Assay (Promega cat #) was used to measure the calpain enzyme activity in live cells, according to the manufacturer's instructions. 1,250 of WM-266-4 cells were plated in 384-well white TC-treated plates in 5 μL of serum-free EMEM media. The cells were incubated overnight at 37° C., 5% CO2 and 95% relative humidity and 5 μL of test compounds 2155-14, (100 μM), calpain inhibitor III and PD151746 (25 μM) were added alone or in combination and incubated at 37° C., 5% CO2, and 95% relative humidity for 0.5, 4, and 24 h. After incubation, 10 μL, of a freshly prepared dilution of the Calpain-Glo Reagent stock solution (consisting of Suc-LLVY-Glo™ substrate, Calpain-Glo™ buffer, Luciferin Detection Reagent, and CaCl2) was added to cells at above mentioned times and luminescence was recorded with a Neo 2 microplate reader (Biotek Inc). All experiments were performed in triplicate and the values provided are the calculated average of at least three independent experiments.

Compound: C=CCNC1=C2C[C@@H](C)C[C@H](OC)[C@H](O)[C@@H](C)/C=C(\C)[C@H](OC(N)=O)[C@@H](OC)/C=C\C=C(/C)C(=O)NC(=CC1=O)C2=O [Compound 17-AAG]
- clinical outcome in patients carrying BRAF or NRAS mutation [1]: melanoma stabilization

Compound: CN(C)c1cccc2c(S(=O)(=O)NCCN3C(=O)C(=O)N([C@H](CC4CCCCC4)CN4CCC[C@H]4CN4C(=O)C(=O)NC[C@@H]4Cc4ccccc4)C[C@@H]3Cc3ccc(O)cc3)cccc12 [Compound 2476-67.2, N-(2-((S)-4-((R)-1-((S)-2-(((S)-6-benzyl-2,3-dioxopiperazin-1-yl)methyl)pyrrolidin-1-yl)-3-cyclohexylpropan-2-yl)-6-(4-hydroxybenzyl)-2,3-dioxopiperazin-1-yl)ethyl)-5-(dimethylamino)naphthalene-1-sulfonamide]
- autophagosome dye staining [2]: intensive green staining
- LC3-II level ([3]; 2.5 μM, 24 hr): no cleavage of lamin A/C or increase of levels of LC3-II was detected
- LC3 western blot ([3]; 5 μM, 24 hr): neither of LC3 isoforms nor actin were detected
- staining of cytoplasm [4]: Diffuse staining of the cytoplasm
- staining of nuclear envelope ([4]; 1 h up to 48 h): stains nuclear membrane in both WM266-4 and M14 cells
- lamin A/C cleavage ([5]; 2.5 μM, 24 hr): no cleavage of lamin A/C
- lamin A/C western blot ([5]; 5 μM, 24 hr): striking increase of cleaved lamin A/C

Compound: O=C(CCCC[C@@H]1SC[C@@H]2NC(=O)N[C@@H]21)NCCCC[C@H]1CNC(=O)C(=O)N1C[C@@H]1CCCN1C[C@@H](CC1CCCCC1)N1C[C@H](Cc2ccc(O)cc2)N(CCc2ccccc2)C(=O)C1=O [Compound 2529-3, N-(4-((S)-1-(((S)-1-((R)-3-cyclohexyl-2-((S)-5-(4-hydroxybenzyl)-2,3-dioxo-4-phenethylpiperazin-1-yl)propyl)pyrrolidin-2-yl)methyl)-5,6-dioxopiperazin-2-yl)butyl)-5-((3aS,4S,6aR)-2-oxohexahydro-1H-thieno[3,4-d]imidazol-4-yl)pentanamide]
- IC50 ([6]; Homo sapiens, 72 h): > 100 µM
- cytotoxicity at 100 µM ([6]; Homo sapiens, WM 266-4, 100 μM, 72 h, read-out: maximal inhibition of cell viability): 42%
- hnRNP A2/B1 in pulldown, western blot [7]: no bands were found
- hnRNP H2 in pulldown, western blot [8]: two bands; also recorded: much less abundant
- LC3-II level ([3]; 100 μM, 24 h): did not significantly increase
- cleaved lamin A/C level [5]: did not significantly increase; also recorded: had no effect on cleavage of lamin A/C

- DDX1 in pulldown, western blot [10]: confirmed
Compound: O=C(CCCC[C@H]1SC[C@H]2NC(=O)N[C@H]21)NCCCC[C@H]1CN([C@H](CC2CCCCC2)CN2CCC[C@H]2CN2C(=O)C(=O)NC[C@@H]2Cc2ccccc2)C(=O)C(=O)N1CCc1ccccc1 [Compound 2529-7, N-(4-((S)-4-((R)-1-((S)-2-(((S)-6-benzyl-2,3-dioxopiperazin-1-yl)methyl)pyrrolidin-1-yl)-3-cyclohexylpropan-2-yl)-5,6-dioxo-1-phenethylpiperazin-2-yl)butyl)-5-((3aR,4R,6aS)-2-oxohexahydro-1H-thieno[3,4-d]imidazol-4-yl)pentanamide]
- inhibition of WM266-4 viability ([6]; 100 μM, 72 h): completely inhibited viability
- IC50 ([6]; Homo sapiens, 72 h): 3.3 ± 0.5 µM
- hnRNP A2/B1 in pulldown, western blot [7]: three bands
- hnRNP H2 in pulldown, western blot [8]: two bands
- lamin A/C interaction in pulldown [9]: lack of lamin A/C interaction
- LC3-II level ([3]; 100 μM, 24 h): increased LC3-II to the levels of 2155-14/2529-1; also recorded: effect on LC3-II levels similar to non-biotinylated 2155-14/2529-1
- cleaved lamin A/C level [5]: failing to increase levels of cleaved lamin A/C; also recorded: had no effect on cleavage of lamin A/C; also recorded: did not induce cleavage of lamin A/C

Compound: CCCS(=O)(=O)Nc1ccc(F)c(C(=O)c2c[nH]c3ncc(-c4ccc(Cl)cc4)cc23)c1F [vemurafenib, reference compound]
- toxicity to mouse embryonic fibroblasts [11]: toxic

Compound: MDL-28170 [reference compound]
- calpain activity induced by 2155-14 after calpain inhibitor pre-treatment [12]: shut down calpain activity induced by 2155-14 at 30 min and 4 h but not at 24 h
- viability, combination with 2155-14 ([6]; 25 μM inhibitor, 100 μM 2155-14): even more pronounced negative effect on viability of cells than either compound alone
